In patent US10995091B2 (Proximagen, LLC, priority 2010, dated 2021):
Where a name gives a salt, the structure may show the parent alone.

Biological target: T1, Human CXCR4 transfected HEK293 cells (Homo sapiens, UniProt P61073)
T1 construct: expressed in transfected cells; host or cells: HEK293
Test: CXCR4 functional calcium assay (calcium flux FLIPR, antagonism of SDF1 response)
Type: cell-based
Conditions: CXCR4 functional activity, antagonism of SDF1 (EC50 concentration), read-out: CXCR4 fKi
Method: The functional activity of test compounds was routinely tested by measuring the ability of compounds to antagonize CXCR4 activity in a dose dependent manner, using a calcium flux Fluorescent Imaging Plate Reader FLIPR assay.
Human CXCR4 transfected HEK293 cells were cultured in Dulbecco's modified Eagles medium containing 4.5 g/L glucose, L-glutamine, pyruvate, 50 µg/mL Geneticin and 250 µg/mL hygromycin B and maintained at 37° C. in a humidified, 5% CO2 controlled atmosphere. Subcultivations were performed every 2-3 d.
At confluence the cells were lifted using Ca^2+ and Mg^2+ free PBS/0.02% (w/v) EDTA, spun at 1000 rpm for 3 min and resuspended at 2.5×10^5 cells/mL. Cells were plated into a 384 well, poly-d-lysine coated, black with clear bottomed plate (Becton Dickinson) at 7500 cells/well. The plates were incubated overnight at 37° C. under 5% CO2. On the day of the experiment the cells were washed with incubation Buffer (HBSS containing 2.5 mM probenecid, 0.1% w/v BSA and 10 mM HEPES, pH 7.4 at 37° C.). After washing, the cells were loaded with Fluo-4 AM dye (Molecular probes) at 2 µM containing 0.48 µg/mL pluronic acid for 60 min at 37° C. under 5% CO2. After thorough washing with incubation buffer the cells were preincubated for 10 min at 37° C. before use.
A combined agonist/antagonist protocol was used to measure changes in intracellular calcium concentration. Compound (antagonist) was added to the cell plate using a Fluorometric Imaging Plate Reader (FLIPR) (Molecular Devices, Sunnyvale, Calif., USA). Basal fluorescence was recorded every second for 10 seconds prior to compound addition (10 μl) and fluorescence recorded every second for 1 min then every 6 seconds for a further 1 min. SDF1[…] (EC50 concentration) was then added using the FLIPR and fluorescence recorded as described above. Curve-fitting and parameter estimation were carried out using GraphPad Prism 4.0 (GraphPad Software Inc., San Diego, Calif.).

T1 sequence (P61073 whole entry): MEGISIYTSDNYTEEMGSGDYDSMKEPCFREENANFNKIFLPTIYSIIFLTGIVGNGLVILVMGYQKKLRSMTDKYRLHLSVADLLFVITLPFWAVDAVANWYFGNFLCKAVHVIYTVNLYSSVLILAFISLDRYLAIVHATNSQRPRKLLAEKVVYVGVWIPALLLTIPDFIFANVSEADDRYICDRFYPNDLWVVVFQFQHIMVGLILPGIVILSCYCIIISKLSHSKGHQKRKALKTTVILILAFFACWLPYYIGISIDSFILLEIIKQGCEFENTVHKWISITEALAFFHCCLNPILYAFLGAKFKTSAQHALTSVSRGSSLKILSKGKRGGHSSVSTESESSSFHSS

Ki | SMILES
100 to 500 nM | Clc1ccccc1CN1CCC(N2CCCN(c3ccccn3)CC2)CC1 [Example 261, 1-{1-[(2-Chlorophenyl)methyl]piperidin-4-yl}-4-(pyridin-2-yl)-1,4-diazepane]
20 to 100 nM | Cc1nc(-c2cccc(N3CCCN(C4CCN(C(C)C)CC4F)CC3)n2)[nH]c1C1CC1 (stereo not shown) [Example 213, 1-[6-(4-Cyclopropyl-5-methyl-1H-imidazol-2-yl)pyridin-2-yl]-4-[3-fluoro-1-(propan-2-yl)piperidin-4-yl]-1,4-diazepane]
20 to 100 nM | [2H]C1([2H])CCN(C2CCN(C(C)C)CC2)CCN1c1cccc(C(=O)NCC2CC2)n1 [Example 181, N-(Cyclopropylmethyl)-6-{7,7-dihydrogenio-4-[1-(propan-2-yl)piperidin-4-yl]-1,4-diazepan-1-yl}pyridine-2-carboxamide]
< 20 nM | [2H]C1([2H])CCN(c2cccc(C(=O)Nc3ccncc3)n2)CCN1C1CCN([C@@H](C)CC)CC1 [Example 189, 6-(4-{1-[(2S)-Butan-2-yl]piperidin-4-yl}-5,5-dihydrogenio-1,4-diazepan-1-yl)-N-(pyridin-4-yl)pyridine-2-carboxamide]
100 to 500 nM | CC(C)N1CCC(N2CCCN(c3cccc(-c4ncc(C5CC5)[nH]4)n3)CC2)C(F)C1 (stereo not shown) [Example 212, 1-[6-(4-Cyclopropyl-1H-imidazol-2-yl)pyridin-2-yl]-4-[3-fluoro-1-(propan-2-yl)piperidin-4-yl]-1,4-diazepane]
20 to 100 nM | [2H]C1([2H])CCN(c2cccc(C(=O)Nc3ccncc3)n2)CCN1C1CCN(C(C)C)CC1F (stereo not shown) [Example 187, 6-{4-[3-Fluoro-1-(propan-2-yl)piperidin-4-yl]-5,5-dihydrogenio-1,4-diazepan-1-yl}-N-(pyridin-4-yl)pyridine-2-carboxamide]
< 20 nM | [2H]C1([2H])CCN(C2CCN(Cc3ccc(F)cc3Cl)CC2)CCN1c1cccc(C(=O)Nc2ccncc2)n1 [Example 205, 6-(4-{1-[(2-Chloro-4-fluorophenyl)methyl]piperidin-4-yl}-7,7-dihydrogenio-1,4-diazepan-1-yl)-N-(pyridin-4-yl)pyridine-2-carboxamide]
500 to 1000 nM | Cc1cn[nH]c1-c1cccc(N2CCCN(C3CCN(C(C)C)CC3)CC2)n1 [Example 173, 1-[6-(4-Methyl-1H-pyrazol-3-yl)pyridin-2-yl]-4-[1-(propan-2-yl)piperidin-4-yl]-1,4-diazepane Trihydrochloride]

The remaining lines, values behind:

SMILES | Ki
CCC(C)N1CCC(N2CCCN(c3cccc(C(=O)NCC4CC4)n3)CC2)CC1 (stereo not shown) [Example 65, 6-{4-[1-(Butan-2-yl)piperidin-4-yl]-1,4-diazepan-1-yl}-N-(cyclopropylmethyl)pyridine-2-carboxamide] | < 20 nM
CC(C)N1CCC(N2CC3CCC2CN(c2cccc(C(=O)NCC4CC4)n2)C3)CC1 (stereo not shown) [Example 199, N-(Cyclopropylmethyl)-6-{6-[1-(propan-2-yl)piperidin-4-yl]-3,6-diazabicyclo[3.2.2]nonan-3-yl}pyridine-2-carboxamide trihydrochloride] | 500 to 1000 nM
CCc1cn(C)c(-c2cccc(N3CCCN(C4CCN(C(C)C)CC4)CC3)n2)n1 [Example 124, 1-[6-(4-Ethyl-1-methyl-1H-imidazol-2-yl)pyridine-2-yl]-4-[1-(propan-2-yl)piperidin-4-yl]-1,4-diazepane] | 20 to 100 nM
CCNC(=O)c1cccc(N2CCCN(C3CCN(C(C)C)CC3)CC2)n1 [Example 4, N-Ethyl-6-{4-[1-(propan-2-yl)piperidin-4-yl]-1,4-diazepan-1-yl}pyridine-2-carboxamide] | 100 to 500 nM
COCc1nc(-c2cccc(N3CCCN(C4CCN(C(C)C)CC4)CC3)n2)no1 [Example 163, 1-{6-[5-(Methoxymethyl)-1,2,4-oxadiazol-3-yl]pyridine-2-yl}-4-[1-(propan-2-yl)piperidin-4-yl]-1,4-diazepane] | 100 to 500 nM
Cc1cnccc1NC(=O)c1cccc(N2CCCN(C3CCN(C(C)C)CC3)CC2)n1 [Example 88, N-(3-Methylpyridin-4-yl)-6-{4-[1-(propan-2-yl)piperidin-4-yl]-1,4-diazepan-1-yl}pyridine-2-carboxamide] | < 20 nM
O=C(NCC1CC1)c1cccc(N2CCCN(C3CCN(Cc4ccc(F)cc4)CC3)CC2)n1 [Example 130, N-(Cyclopropylmethyl)-6-(4-{1-[(4-fluorophenyl)methyl]piperidin-4-yl}-1,4-diazepan-1-yl)pyridine-2-carboxamide] | 100 to 500 nM
CC(C)N1CCC(N2CCCN(c3cccc(C(=O)NCC(F)F)n3)CC2)CC1 [Example 9, N-(2,2-Difluoroethyl)-6-{4-[1-(propan-2-yl)piperidin-4-yl]-1,4-diazepan-1-yl}pyridine-2-carboxamide] | 100 to 500 nM
CC(C)N1CCC(N2CCCN(c3cccc(-c4noc(-c5ccccc5)n4)n3)CC2)CC1 [Example 164, 1-[6-(5-Phenyl-1,2,4-oxadiazol-3-yl)pyridine-2-yl]-4-[1-(propan-2-yl)piperidin-4-yl]-1,4-diazepane] | 20 to 100 nM
O=C(NCC1CC1)c1cccc(N2CCCN(C3CCN([C@@H]4CCc5ccccc54)CC3)CC2)n1 [Example 76, N-(Cyclopropylmethyl)-6-(4-{1-[(1R)-2,3-dihydro-1H-inden-1-yl]piperidin-4-yl}-1,4-diazepan-1-yl)pyridine-2-carboxamide] | 20 to 100 nM
CC(C)N1CCC(N2CCCN(c3cccc(C(=O)Nc4ccccn4)n3)CC2)CC1 [Example 28, 6-{4-[1-(Propan-2-yl)piperidin-4-yl]-1,4-diazepan-1-yl}-N-(pyridin-2-yl)pyridine-2-carboxamide] | < 20 nM
CC(C)N1CCC(N2CCCN(c3cccc(C(=O)NCc4ccccn4)n3)CC2)CC1 [Example 33, 6-{4-[1-(Propan-2-yl)piperidin-4-yl]-1,4-diazepan-1-yl}-N-(pyridin-2-ylmethyl)pyridine-2-carboxamide] | 20 to 100 nM
C[C@H](N1CCC(N2CCCN(c3cccc(C(=O)Nc4ccncc4)n3)CC2)CC1)C(F)(F)F [Example 82, N-(Pyridin-4-yl)-6-(4-{1-[(2S)-1,1,1-trifluoropropan-2-yl]piperidin-4-yl}-1,4-diazepan-1-yl)pyridine-2-carboxamide] | < 20 nM
CC(C)N1CCC(N2CCCN(c3cccc(C(=O)NCC(F)(F)F)n3)CC2)CC1 [Example 10, 6-{4-[1-(Propan-2-yl)piperidin-4-yl]-1,4-diazepan-1-yl}-N-(2,2,2-trifluoroethyl)pyridine-2-carboxamide] | 100 to 500 nM
C[C@H](c1ccc(F)cc1)N1CCC(N2CCCN(c3cccc(C(=O)NCC4CC4)n3)CC2)CC1 [Example 75, N-(Cyclopropylmethyl)-6-(4-{1-[(1R)-1-(4-fluorophenyl)ethyl]piperidin-4-yl}-1,4-diazepan-1-yl)pyridine-2-carboxamide] | 100 to 500 nM
CC(C)N1CCC(N2CCCN(c3cccc(C(=O)Nc4cncs4)n3)CC2)CC1 [Example 32, 6-{4-[1-(Propan-2-yl)piperidin-4-yl]-1,4-diazepan-1-yl}-N-(1,3-thiazol-5-yl)pyridine-2-carboxamide] | < 20 nM
O=C(NCC1CCOCC1)c1cccc(N2CCCN(C3CCN(Cc4ccccc4Cl)CC3)CC2)n1 [Example 47, 6-(4-{1-[(2-Chlorophenyl)methyl]piperidin-4-yl}-1,4-diazepan-1-yl)-N-(oxan-4-ylmethyl)pyridine-2-carboxamide] | < 20 nM
